Results filed as inconclusive are left out. Activity calls are given as the source filed them.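 How the source made its calls: active means compound giving calcium release at least equal to the estrogen response, or cutting estrogen-driven calcium release by 60% or more; inconclusive means compound glowing brighter than the detergent maximum; inactive means the rest.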

The target of the first assay is G-protein coupled estrogen receptor 1 (Homo sapiens) (UniProt Q99527). Kind of assay: GPER-mediated calcium mobilization modulators – HL-60 cells, Indo-1 fluorescence, 10 µM, primary screen (AID 1213). The note with it: Indo-1 calcium mobilization, at 10 µM, stronger effect = higher value.
`CCC(=O)Oc1ccc(/C(CC)=C(\CC)c2ccc(OC(=O)CC)cc2)cc1`: the calcium mobilization (agonist) is 0% (inactive).

Consider `COc1cccc2c1NC(C(=O)O)C1CC=CC21` (stereo not given), for which the calcium mobilization (agonist) is 0% (inactive).

Turning to `O=C(c1cc2ncc(Br)cn2n1)N1CCN(C(=O)c2ccco2)CC1`, the calcium mobilization (agonist) is 0% (inactive).

`Fc1ccc2c(c1)[C@H]1OCC[C@H]1[C@@H](c1ccco1)N2`: the calcium mobilization (agonist) was 100%.

In the case of `Oc1ccc(-c2nc3ccc4ccccc4c3c3c2CCC3)cc1O`, the calcium mobilization (agonist) was 0% (inactive).

As to `CC(=O)c1ccc2c(c1)C1C=CCC1C(c1ccc(S(=O)(=O)N3CCOCC3)cc1)N2` (stereo not given), the calcium mobilization (agonist) is 100%.

Consider `CC(=O)c1ccc2c(c1)C1C=CCC1C(c1ccncc1)N2` (stereo not given), for which the calcium mobilization (agonist) was 100%.

Take `COc1ccc(CNC(=O)c2cc(-c3cccs3)on2)cc1`: the calcium mobilization (agonist) is 0% (inactive).

Consider `Cc1ccc2c(c1)C1C=CCC1C(C(=O)O)N2` (stereo not given), for which the calcium mobilization (agonist) is 0% (inactive).

For `CC(=O)c1ccc2c(c1)C1C=CCC1C(C(=O)O)N2` (stereo not given), the calcium mobilization (agonist) is 0% (inactive).

Regarding `N=C1C(c2nc3ccccc3[nH]2)=C(O)CN1c1ccc(CC(=O)O)cc1`, the calcium mobilization (agonist) is 0% (inactive).

On to `COc1ccc(OC)c(C2Nc3c(Cl)ccc(C(=O)O)c3C3C=CCC32)c1` (stereo not given), for which the calcium mobilization (agonist) is 50% (inactive).

With `COc1cc(C2Nc3c(F)cccc3C3C=CCC32)cc(Br)c1OC` (stereo not given), the calcium mobilization (agonist) is 0% (inactive).

Regarding `CCc1nc2sc3ccccc3c(=O)c2c(=O)n1Cc1ccco1`, the calcium mobilization (agonist) was 0% (inactive).

With `Cc1cc(C)cc(OCC(=O)Nc2ccc(N3CCCC3)cc2)c1`, the calcium mobilization (agonist) was 0% (inactive).

Consider `CCc1ccc(-c2nn(-c3ccccc3)cc2CSC(=N)N)cc1`, for which the calcium mobilization (agonist) is 50% (inactive).

On to `Nc1ncnc2c1ncn2C1CCC(CO)C(O)C1` (stereo not given), for which the calcium mobilization (agonist) was 0% (inactive).

`CCn1nnc(NC(=O)CSc2ccc(Cl)cc2)n1`: the calcium mobilization (agonist) was 0% (inactive).

Turning to `CN(C)C(=O)c1ccc2c(c1)C1C3CCC(C3)C1C(c1ccccc1)N2` (stereo not given), the calcium mobilization (agonist) was 100%.

For `Cn1ccnc1SCC(=O)Nc1ccc2nc(SCC(=O)NC3CC3)sc2c1`, the calcium mobilization (agonist) is 0% (inactive).

Consider `CCc1ccc2c(c1)[C@H]1OCC[C@H]1[C@@H](c1cccs1)N2`, for which the calcium mobilization (agonist) is 50% (inactive).

As for `CC(=O)Nc1ccc(OC(=O)CC2SC(=O)NC2=O)cc1` (stereo not given), the calcium mobilization (agonist) was 0% (inactive).

As to `CCCCOC(=O)c1c(C)oc2ccc(NS(=O)(=O)c3ccc4c5c(cccc35)C(=O)N4)cc12`, the calcium mobilization (agonist) was 0% (inactive).

Consider `C[C@H]1CCC[C@@H](O)CCC/C=C/c2cc(O)cc(O)c2C(=O)O1`, for which the calcium mobilization (agonist) was 50% (inactive).

Take `Cc1ccc2c(c1Cl)NC(C(=O)O)C1CC(Sc3ccccc3[N+](=O)[O-])C(Cl)C21` (stereo not given): the calcium mobilization (agonist) was 0%.

Turning to `Oc1ccc(-c2nc(-c3ccc(O)c(O)c3)cs2)cc1`, the calcium mobilization (agonist) is 0% (inactive).

Turning to `O=C(O)C1Nc2c(C(=O)N3CCOCC3)cccc2C2C=CCC12` (stereo not given), the calcium mobilization (agonist) was 0% (inactive).

`Cc1cc(C(=O)Nc2sc3c(c2C#N)CCC3)no1`: the calcium mobilization (agonist) was 0% (inactive).

`CCOC(=O)c1ccc2c(c1)C1C=CCC1C(C(=O)O)N2` (stereo not given): the calcium mobilization (agonist) is 0% (inactive).

On to `COc1cccc(C2Nc3c(F)cc(Br)cc3C3C=CCC32)c1OC` (stereo not given), for which the calcium mobilization (agonist) was 0% (inactive).

`O=C(O)c1ccc2c(c1)C1C=CCC1C(c1cc3c(cc1Br)OCO3)N2` (stereo not given): the calcium mobilization (agonist) is 100%.

In the case of `O=C(O)C1Nc2c(O)cc(Cl)c([N+](=O)[O-])c2C2C=CCC12` (stereo not given), the calcium mobilization (agonist) was 0% (inactive).

The same assay, now with this note: Indo-1 calcium mobilization, measured here: antagonist mode response, at 10 µM.
Turning to `CCC(=O)Oc1ccc(/C(CC)=C(\CC)c2ccc(OC(=O)CC)cc2)cc1`, the inhibition of estrogen-induced calcium mobilization (higher = more inhibition) came out at 50%.

For the compound `Cc1ccc2c(c1)C1C=CCC1C(C(=O)O)N2` (stereo not given), the inhibition of estrogen-induced calcium mobilization (higher = more inhibition) is 50%.

`Cc1ccc2c(c1Cl)NC(C(=O)O)C1CC(Sc3ccccc3[N+](=O)[O-])C(Cl)C21` (stereo not given): the inhibition of estrogen-induced calcium mobilization (higher = more inhibition) was determined as 100%.

The values are drawn from PubChem BioAssay AID1213 (NMMLSC, 2008).
